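Tested at 5 concentrations; 48 h exposure; 96-well plates; endpoints linearly interpolated, else capped at highest concentration. At the GI50, growth is halved. TGI: total growth inhibition.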
Experiments:
Assay in all cases: NCI tumour cell line growth inhibition, 48 h
TK-10 renal = tested on: TK-10 renal
DU-145 prostate = tested on: DU-145 prostate
OVCAR-3 ovarian = tested on: OVCAR-3 ovarian
U251 CNS = tested on: U251 CNS
OVCAR-8 ovarian = tested on: OVCAR-8 ovarian
T-47D breast = tested on: T-47D breast
HL-60(TB) leukemia = tested on: HL-60(TB) leukemia
A498 renal = tested on: A498 renal
RPMI-8226 leukemia = tested on: RPMI-8226 leukemia
EKVX NSCLC = tested on: EKVX NSCLC
SW-620 colon = tested on: SW-620 colon
SK-MEL-28 melanoma = tested on: SK-MEL-28 melanoma
NCI/ADR-RES ovarian = tested on: NCI/ADR-RES ovarian
SK-MEL-2 melanoma = tested on: SK-MEL-2 melanoma
UACC-62 melanoma = tested on: UACC-62 melanoma
ACHN renal = tested on: ACHN renal
KM12 colon = tested on: KM12 colon
HS 578T breast = tested on: HS 578T breast
786-0 renal = tested on: 786-0 renal
SF-268 CNS = tested on: SF-268 CNS
A549 NSCLC = tested on: A549 NSCLC
SNB-75 CNS = tested on: SNB-75 CNS
MDA-MB-435 = tested on: MDA-MB-435
LOX IMVI melanoma = tested on: LOX IMVI melanoma
M14 melanoma = tested on: M14 melanoma
MOLT-4 leukemia = tested on: MOLT-4 leukemia
MCF7 breast = tested on: MCF7 breast
SK-OV-3 ovarian = tested on: SK-OV-3 ovarian
IGROV1 ovarian = tested on: IGROV1 ovarian
K-562 leukemia = tested on: K-562 leukemia
NCI-H23 lung = tested on: NCI-H23 lung
SN12C renal = tested on: SN12C renal
PC-3 prostate = tested on: PC-3 prostate
UO-31 renal = tested on: UO-31 renal
SK-MEL-5 melanoma = tested on: SK-MEL-5 melanoma
UACC-257 melanoma = tested on: UACC-257 melanoma
HOP-62 NSCLC = tested on: HOP-62 NSCLC
MDA-MB-231 breast = tested on: MDA-MB-231 breast
NCI-H226 lung = tested on: NCI-H226 lung
COLO 205 colon = tested on: COLO 205 colon
OVCAR-4 ovarian = tested on: OVCAR-4 ovarian
SF-539 CNS = tested on: SF-539 CNS
OVCAR-5 ovarian = tested on: OVCAR-5 ovarian
CAKI-1 renal = tested on: CAKI-1 renal
HCT-116 colon = tested on: HCT-116 colon
NCI-H522 lung = tested on: NCI-H522 lung
HCC-2998 colon = tested on: HCC-2998 colon
SF-295 CNS = tested on: SF-295 CNS
HOP-92 NSCLC = tested on: HOP-92 NSCLC
HT29 colon = tested on: HT29 colon
CCRF-CEM leukemia = tested on: CCRF-CEM leukemia
RXF 393 renal = tested on: RXF 393 renal
NCI-H460 lung = tested on: NCI-H460 lung
MALME-3M melanoma = tested on: MALME-3M melanoma
SNB-19 CNS = tested on: SNB-19 CNS
HCT-15 colon = tested on: HCT-15 colon
BT-549 breast = tested on: BT-549 breast
SR leukemia = tested on: SR leukemia

CC(CN(C)C)S(=O)(=O)c1ccc(-c2cnc(N)c(C(=O)Nc3ccccc3)n2)cc1 (stereo unspecified)
GI50 (TK-10 renal): 11.5 µM | TGI (TK-10 renal): > 57.2 µM | GI50 (DU-145 prostate): 4.56 µM | TGI (DU-145 prostate): > 49.8 µM | GI50 (OVCAR-3 ovarian): 5.83 µM | TGI (OVCAR-3 ovarian): 32.9 µM | GI50 (U251 CNS): 4.17 µM | TGI (U251 CNS): 30 µM | GI50 (OVCAR-8 ovarian): 10.3 µM | TGI (OVCAR-8 ovarian): > 89.8 µM | GI50 (T-47D breast): 13.1 µM | TGI (T-47D breast): 59.3 µM | GI50 (HL-60(TB) leukemia): 3.05 µM | TGI (HL-60(TB) leukemia): 11 µM | GI50 (A498 renal): 2.41 µM | TGI (A498 renal): 9.02 µM | GI50 (RPMI-8226 leukemia): 13.8 µM | TGI (RPMI-8226 leukemia): 48.9 µM | GI50 (EKVX NSCLC): 31.1 µM | TGI (EKVX NSCLC): > 100 µM | GI50 (SW-620 colon): 3.84 µM | TGI (SW-620 colon): 19.2 µM | GI50 (SK-MEL-28 melanoma): 7.22 µM | TGI (SK-MEL-28 melanoma): 21.4 µM | GI50 (NCI/ADR-RES ovarian): 5.2 µM | TGI (NCI/ADR-RES ovarian): > 100 µM | GI50 (SK-MEL-2 melanoma): 4.31 µM | TGI (SK-MEL-2 melanoma): 17.6 µM | GI50 (UACC-62 melanoma): 6.28 µM | TGI (UACC-62 melanoma): 21.6 µM | GI50 (ACHN renal): 1.35 µM | TGI (ACHN renal): 16.9 µM | GI50 (KM12 colon): 11.1 µM | TGI (KM12 colon): 28.7 µM | GI50 (HS 578T breast): 2.41 µM | TGI (HS 578T breast): 27 µM | GI50 (786-0 renal): 2.37 µM | TGI (786-0 renal): 15.2 µM | GI50 (SF-268 CNS): 6.8 µM | TGI (SF-268 CNS): 39.8 µM | GI50 (A549 NSCLC): 2.86 µM | TGI (A549 NSCLC): > 46.1 µM | GI50 (SNB-75 CNS): 2.58 µM | TGI (SNB-75 CNS): 35.5 µM | GI50 (MDA-MB-435): 4.51 µM | TGI (MDA-MB-435): 23.8 µM | GI50 (LOX IMVI melanoma): 2.82 µM | TGI (LOX IMVI melanoma): 16.7 µM | GI50 (M14 melanoma): 4.06 µM | TGI (M14 melanoma): 21.9 µM | GI50 (MOLT-4 leukemia): 3.15 µM | TGI (MOLT-4 leukemia): 14.2 µM | GI50 (MCF7 breast): 1.58 µM | TGI (MCF7 breast): 38.8 µM | GI50 (SK-OV-3 ovarian): 6.04 µM | TGI (SK-OV-3 ovarian): > 54.5 µM | GI50 (IGROV1 ovarian): 3.15 µM | TGI (IGROV1 ovarian): 36 µM | GI50 (K-562 leukemia): 3 µM | TGI (K-562 leukemia): 22 µM | GI50 (NCI-H23 lung): 3.05 µM | TGI (NCI-H23 lung): 24.7 µM | GI50 (SN12C renal): 5.09 µM | TGI (SN12C renal): 27 µM | GI50 (PC-3 prostate): 10.9 µM | TGI (PC-3 prostate): > 73.8 µM | GI50 (UO-31 renal): 4.78 µM | TGI (UO-31 renal): 28.7 µM | GI50 (SK-MEL-5 melanoma): 2.93 µM | TGI (SK-MEL-5 melanoma): 11.5 µM | GI50 (UACC-257 melanoma): 2.04 µM | TGI (UACC-257 melanoma): 5.06 µM | GI50 (HOP-62 NSCLC): 8.16 µM | TGI (HOP-62 NSCLC): 36.2 µM | GI50 (MDA-MB-231 breast): 10.6 µM | TGI (MDA-MB-231 breast): 27.6 µM | GI50 (NCI-H226 lung): 12.9 µM | TGI (NCI-H226 lung): 35.4 µM | GI50 (COLO 205 colon): 2.74 µM | TGI (COLO 205 colon): 8.56 µM | GI50 (OVCAR-4 ovarian): 6.95 µM | TGI (OVCAR-4 ovarian): 54.2 µM | GI50 (SF-539 CNS): 2.75 µM | TGI (SF-539 CNS): 9.76 µM | GI50 (OVCAR-5 ovarian): 11.8 µM | TGI (OVCAR-5 ovarian): 34.5 µM | GI50 (CAKI-1 renal): 3.02 µM | TGI (CAKI-1 renal): > 50.8 µM | GI50 (HCT-116 colon): 4.88 µM | TGI (HCT-116 colon): 21.2 µM | GI50 (NCI-H522 lung): 17.5 µM | TGI (NCI-H522 lung): 35.9 µM | GI50 (HCC-2998 colon): 0.973 µM | TGI (HCC-2998 colon): 16.6 µM | GI50 (SF-295 CNS): 8.49 µM | TGI (SF-295 CNS): 25.7 µM | GI50 (HOP-92 NSCLC): 6.86 µM | TGI (HOP-92 NSCLC): 34.7 µM | GI50 (HT29 colon): 2.68 µM | TGI (HT29 colon): 13.4 µM | GI50 (CCRF-CEM leukemia): 2.61 µM | TGI (CCRF-CEM leukemia): 29.6 µM | GI50 (RXF 393 renal): 1.52 µM | TGI (RXF 393 renal): 8.4 µM | GI50 (NCI-H460 lung): 2.95 µM | TGI (NCI-H460 lung): 22.2 µM | GI50 (MALME-3M melanoma): 8.16 µM | TGI (MALME-3M melanoma): 26.6 µM | GI50 (SNB-19 CNS): 16.3 µM | TGI (SNB-19 CNS): 75.1 µM | GI50 (HCT-15 colon): 2.91 µM | TGI (HCT-15 colon): 13.4 µM | GI50 (BT-549 breast): 6.43 µM | TGI (BT-549 breast): 27.2 µM | GI50 (SR leukemia): 1.39 µM | TGI (SR leukemia): 8.53 µM

— PubChem BioAssay (NCI)
